Values quoted from earlier work, collected in patent publication US11963940B2, “Parenteral esmolol formulation” (AOP ORPHAN PHARMACEUTICALS AG, priority 2012, dated 2024).

Details: after the starting dose, e.g. initial infusion

## COC(=O)CCc1ccc(OCC(O)CNC(C)C)cc1.Cl (stereo not shown) [esmolol, 4-[2-Hydroxy-3-[(1-methylethyl)amino]propoxy] benzenepropanoic acid methyl ester hydrochloride]
  time to steady state plasma concentration: ≤ 5 min
